Entries after “also recorded” stand apart in the source; their conditions may differ.
Columns and labels:
Format in all cases: biochemical, Taxus chinensis
[1] = tested on: acetyl transferase (acetyl CoA 10-hydroxytaxane-O-acetyl transferase); assay: Substrate specificity of the purified acetyl transferase (conversion of taxane substrates with [2-14C]acetyl CoA); conditions: for Conversion, based on the conversion of 10-deacetyltaxuyunnanin C / pkat (enzyme activity with the substrate): Enzyme: Phenylsepharose eluate (225-fold purified); for acetylation / acceptance as substrate by the enzyme (in words): purified acetyl transferase, acetyl donor acetyl CoA
Method: A sufficient amount of the enzyme solution to be tested was pipetted into 50 μl of tris buffer (0.8 M, pH 8.5) in an Eppendorf cap. 30 μl of purified acetyl CoA (5 nmol of unlabelled and 0.02 μCi-[2-^14C]acetyl coenzyme A) and 15 nmol of a 3 mM stock solution of 10-deacetyltaxuyunnanin C dissolved in DMSO were then added (for the control only the corresponding amount of DMSO instead of this taxane). The mixture was incubated at 35° C. for 30 minutes and then acidified using 20 μl of 12% H2SO4, the taxuyunnanin C formed was extracted using 600 μl of tert-butyl methyl ether (10 min. in an overhead shaker) and the mixture was then centrifuged (4 min at 14,000 rpm in an Eppendorf centrifuge). The unreacted [2-^14C]acetyl CoA which was still present remained in the aqueous phase. 500 μl of the organic phase were evaporated to dryness in a stream of air, which simultaneously removed any [2-^14C]acetic acid present which, owing to the earlier acidification, was present as the acid and was therefore volatile. Using a scintillation counter (Multipurpose Scintillation Counter LS 6500, from Beckmann) or a thin-layer radioscanner (Automatic TLC Linear Analyser, from Berthold), the type and the amount of the product formed were determined. The former apparatus was used to determine the conversion and thus the activity of the enzyme using the cpm values counted. With the aid of thin-layer chromatography (TLC) (mobile phase: chloroform:acetonitrile 7:3) and the subsequent evaluation using a radioscanner, it was possible to check whether the radioactivity measured using the scintillation counter did indeed correspond to a peak in the region of the Rf value of the expected product.
To check the substrate specificity of the purified acetyl transferase, various compounds having a taxane skeleton were used as substrate.
10-DAB is converted with a rate of conversion of 85%, compared to 10-deacetyltaxuyunnanin C to baccatin III.
Conversion of Various Substrates, Based on the Conversion of 10-deacetyltaxuyunnanin C
Enzyme: Phenylsepharose eluate (225-fold purified)

acetyl transferase [2] = assay: KM value determination for 10-deacetyltaxuyunnanin C (Lineweaver-Burk); conditions: phenylsepharose eluate, 225-fold enriched; 30 min at 35° C., pH 8.5
Method: To gain information about the affinity of the acetyl transferase to 10-deacetyltaxuyunnanin C, the KM value of the phenylsepharose eluate was determined.
100 μl of acetyl-transferase (0.25 pcat, 40 ng of protein, 225-fold enriched)
30 μl of acetyl coenzyme A (5 nmol, additionally containing 0.02 μCi[2-^14C]acetylCoA)
30 min at 35° C.; evaluation of the radioactivity, which had been extracted using tert-butyl methyl ether, using a scintillation counter.
By plotting the measured results in a doubly reciprocal manner according to Lineweaver and Burk, the KM value for 10-deacetyltaxuyunnanin C was determined graphically to be 23 μM.

acetyl transferase [3] = assay: KM value determination for acetyl coenzyme A (Lineweaver-Burk); conditions: phenylsepharose eluate, 225-fold enriched; 30 min at 35° C., pH 8.5
Method: The affinity of acetyl transferase to acetyl coenzyme A can be described by the KM value, which was determined using the phenylsepharose eluate.
100 μl of acetyl transferase (0.25 pcat, 40 ng of protein, 225-fold enriched)
5 μl of 3 mM 10-deacetyltaxuyunnanin C (15 nmol)
30 min at 35° C. Evaluation was subsequently carried out by extraction with tert-butyl methyl ether and the use of a scintillation counter. By plotting the measured values in a doubly reciprocal manner according to Lineweaver and Burk, the KM value for acetyl coenzyme A was determined at 61 μM.

Compound	Conversion, based on the conversion of 10-deacetyltaxuyunnanin C [1] [%]	pkat (enzyme activity with the substrate) [1] [pkat]	further results
2,10,14-deacetyltaxuyunnanin C [2,10,14-Desacetyltaxuyunnanin C]	81	0.91	
10,14-deacetyltaxuyunnanin C [10,14-Desacetyltaxuyunnanin C]	102	1.14	
C=C1C(O)CCC2(C)CC(O)C3=C(C)CC(O)C(C(O)C12)C3(C)C (centres unmarked) [2,5,10,14-Desacetyltaxuyunnanin C, 2,5,10,14-deacetyltaxuyunnanin C]	53	0.59	
C=C1C(O)CCC2(C)CC(O)C3=C(C)CC(O)C(C(OC(C)=O)C12)C3(C)C (centres unmarked) [5,10,14-Desacetyltaxuyunnanin C, 5,10,14-deacetyltaxuyunnanin C]	88	0.99	
CC(=O)O[C@@]12CO[C@@H]1C[C@H](OC(=O)OC(C)(C)C)[C@@]1(C)C(=O)[C@H](O)C3=C(C)[C@@H](O)C[C@@](O)([C@@H](OC(=O)c4ccccc4)[C@H]21)C3(C)C [7-BOC-10-DAB III]	2	2	acetylation / acceptance as substrate by the enzyme (in words) [1]: not recognized as substrates
CC[Si](CC)(CC)O[C@H]1C[C@H]2OC[C@@]2(OC(C)=O)[C@H]2[C@H](OC(=O)c3ccccc3)[C@]3(O)C[C@H](O)C(C)=C([C@@H](O)C(=O)[C@]12C)C3(C)C [7-TES-10-DAB III]	0	0	acetylation / acceptance as substrate by the enzyme (in words) [1]: not recognized as substrates
CC(=O)O[C@@]12CO[C@@H]1C[C@H](O)[C@@]1(C)C(=O)[C@H](O)C3=C(C)[C@@H](O)C[C@@](O)([C@@H](OC(=O)c4ccccc4)[C@H]21)C3(C)C [10-Desacetylbaccatin III, 10-deacetylbaccatin III]	80	0.9	Conversion, based on the conversion of 10-deacetyltaxuyunnanin C ([1]; listed as 10-DAB): 85%
C=C1[C@@H](OC(C)=O)CC[C@@]2(C)C[C@H](O)C3=C(C)C[C@H](OC(C)=O)[C@@H]([C@@H](OC(C)=O)[C@H]12)C3(C)C [10-Desacetyltaxuyunnanin C, 10-deacetyltaxuyunnanin C]	100	1.12	Km (acetyl transferase [2]): 23 µM
CC=C(C)C(=O)NC(c1ccccc1)C(O)C(=O)OC1CC2(O)C(OC(=O)c3ccccc3)C3C4(OC(C)=O)COC4CC(O)C3(C)C(=O)C(O)C(=C1C)C2(C)C (centres unmarked) [10-deacetylcephalomannin]			acetylation / acceptance as substrate by the enzyme (in words) [1]: not acetylated; also recorded: acetylation does not take place
CC(=O)O[C@@]12CO[C@@H]1C[C@H](O)[C@@]1(C)C(=O)[C@H](O)C3=C(C)[C@@H](OC(=O)[C@H](O)[C@@H](NC(=O)c4ccccc4)c4ccccc4)C[C@@](O)([C@@H](OC(=O)c4ccccc4)[C@H]21)C3(C)C [10-deacetyltaxol]			acetylation / acceptance as substrate by the enzyme (in words) [1]: not acetylated; also recorded: acetylation does not take place
CC(=O)OC12COC1CC(O)C1(C)C(=O)C(O)C3=C(C)C(O)CC(O)(C(OC(=O)c4ccccc4)C21)C3(C)C (stereo not drawn) [10-epi-10-DAB III]	0	0	
CC(=O)OC12COC1CC(O)C1(C)C(=O)C(O)C3=C(C)C(O)C(O)C(O)(C(OC(=O)c4ccccc4)C21)C3(C)C (centres unmarked) [14-Hydroxy-10-DAB III, 14-hydroxy-10-deacetylbaccatin III]	97	1.09	
CC(=O)O[C@@]12CO[C@@H]1C[C@H](O)[C@@]1(CO)C(=O)[C@H](O)C3=C(C)[C@@H](O)C[C@@](O)([C@@H](OC(=O)c4ccccc4)[C@H]21)C3(C)C [19-Hydroxy-10-DAB III, 19-hydroxy-10-DAB III]	38	0.43	
CC(=O)SCCNC(=O)CCNC(=O)[C@H](O)C(C)(C)COP(=O)(O)OP(=O)(O)OC[C@H]1O[C@@H](n2cnc3c(N)ncnc32)[C@H](O)[C@@H]1OP(=O)(O)O [acetyl coenzyme A]			Km (acetyl transferase [3]): 61 µM

Source: patent publication US6514732B1, “Process for preparing baccatin” (Indena S.p.A., priority 1998, dated 2003)
